# Measured values reported in patent US20170266164A1, “NEW METHODS AND USES” (Vicore Pharma AB, priority 2014, published 2017).
# Entries after “also recorded” stand apart in the source; their conditions may differ.
# Key:
# Berk-SS mice = assay: Urine concentrating ability (urine osmolality), glomerulopathy and survival in drug-treated sickle mice; assay type: in vivo
# From the text: The Berk-AA mice are still relatively outbred and cannot be transplanted into BI/6 or Berk-SS mice without significant graft versus host disease. Knock-in SS (B6; 129-Hba^tm1(HBA)Tow Hbb^tm2(HBG1,HBB*)Tow/Hbb^tm3(HBG1,HBB)Tow/J) mice were kindly provided by Dr. Timothy Townes (University of Alabama, Birmingham). AT1R^−/− mice (B6.129P2Agtr1a^tm1Unc/J) were purchased from Jackson laboratories (Bar Harbor, Me.). AT2R^−/− mice were kindly provided by Dr. Tadashi Inagami (Vanderbilt University School of Medicine, Nashville, Tenn.). […]
# Twenty-four hour urine was collected using metabolic cages. Urine volume was measured and then protein stabilization buffer (0.4 mM ophenanthroline, 1 mM p-hydroxymercuribenzoic acid and 0.12 mM pepstatin A and 0.5M EDTA, pH 8.0) was added to a portion of urine to stabilize Ang-11. […] Urine albumin level was measured using the mouse albumin ELISA kit (Bethyl Laboratories, Montgomery, Tex., catalog# E90-134). […] Urine osmolality was measured by vapor pressure osmometer, Vapro 5600, (Wescor Biomedical Systems, South Logan, Utah). Urine creatinine was measured using the creatinine parameter assay kit (R&D Systems, Minneapolis, Minn., catalog# KGE005). Plasma creatinine was measured using the creatinine assay kit (Abcam, Cambridge, Mass., catalog# ab65340) following the manufacturer's instructions. […]
# AT2 receptor = molecular target: T1, AT2 receptor (Rattus norvegicus, UniProt P35351); settings: rat heart; regulation of TIMP1/MMP9 and TGF β1; cited from earlier work
# T1 construct: Stimulation of the AT2 receptor with C21 (as defined herein) ameliorates LV fibrosis; host or cells: rat heart (in vivo, endogenous receptor)
# T1 sequence (P35351 1-363): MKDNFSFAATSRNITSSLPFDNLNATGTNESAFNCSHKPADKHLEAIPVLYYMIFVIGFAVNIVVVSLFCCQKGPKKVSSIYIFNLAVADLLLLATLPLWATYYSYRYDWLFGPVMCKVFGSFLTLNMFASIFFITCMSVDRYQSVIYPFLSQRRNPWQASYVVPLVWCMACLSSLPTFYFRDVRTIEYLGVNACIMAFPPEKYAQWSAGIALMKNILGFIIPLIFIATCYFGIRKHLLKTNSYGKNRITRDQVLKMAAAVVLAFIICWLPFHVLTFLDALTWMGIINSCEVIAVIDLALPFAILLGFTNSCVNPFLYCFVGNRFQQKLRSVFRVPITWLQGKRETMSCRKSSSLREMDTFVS
# Berk-SS/WT chimeric mice = assay: Urine albumin, urine osmolality and glomerular disease in drug-treated sickle hematopoietic chimeras; assay type: in vivo, mouse; settings: for albuminuria: Berk-SS/WT chimeric mice vs untreated chimeras; for glomerular disease: hematopoietic SCD chimeras; for UCA (urine osmolality): sickle chimeric mice, after 8 hour water deprivation
# From the text: The Berk-AA mice are still relatively outbred and cannot be transplanted into BI/6 or Berk-SS mice without significant graft versus host disease. Knock-in SS (B6; 129-Hba^tm1(HBA)Tow Hbb^tm2(HBG1,HBB*)Tow/Hbb^tm3(HBG1,HBB)Tow/J) mice were kindly provided by Dr. Timothy Townes (University of Alabama, Birmingham). AT1R^-/- mice ([…]1Unc/J) were purchased from Jackson laboratories (Bar Harbor, Me.). AT2R^-/- mice were kindly provided by Dr. […] (Vanderbilt University School of Medicine, Nashville, Tenn.). Bone marrow from donor Berkeley sickle mice (or 057BI/6 control mice) were distributed 1:5 among the 057BI/6, AT1R^-/- and AT2R^-/- lethally irradiated (1175 cGy) recipient mice. All animals were maintained in the Cincinnati Children's Research Foundation's vivarium using protocols approved by the Institutional Animal Care and Use Committee. Twenty-four hour urine was collected using metabolic cages. Urine volume was measured and then protein stabilization buffer (0.4 mM ophenanthroline, 1 mM p-hydroxymercuribenzoic acid and 0.12 mM pepstatin A and 0.5M EDTA, pH 8.0) was added to a portion of urine to stabilize Ang-11. The rest of the urine was used for other analyses, including GFR, albumin, osmolality. Temporal assessments of urine albumin, creatinine and osmolality were made after an 8 hour water deprivation in SCD chimeric mice. […] Therefore, in Berk-SS mice (untransplanted/“straight SCD” native sickle mice) no water deprivation was performed prior to urine collection. Urine albumin level was measured using the mouse albumin ELISA kit (Bethyl Laboratories, Montgomery, Tex., catalog# E90-134). The ELISA was performed in a 96-well clear micro-plate (R&D systems, Minneapolis, Minn., catalog # DY990) as per manufacturer's instructions. Urine osmolality was measured by vapor pressure osmometer, Vapro 5600, (Wescor Biomedical Systems, South Logan, Utah). Urine creatinine was measured using the creatinine parameter assay kit (R&D Systems, Minneapolis, Minn., catalog# KGE005). Plasma creatinine was measured using the creatinine assay kit (Abcam, Cambridge, Mass., catalog# ab65340) following the manufacturer's instructions. Mice were given the following drug treatments: a) Captopril (West-Ward Pharmaceutical, West Eatontown, N.J., NDC number #0143-1173-01) 0.15 mg/ml in drinking water. b) Losartan (Teva Pharmaceuticals USA Inc, North Wales, Pa., -NDC number#00937366-98) 0.3-0.6 mg/ml in drinking water. c) C21 (Vicore Pharma AB, […], Sweden; Batch/Lot number # A11202910) 10 mg/kg/day in drinking water. Losartan and captopril water bottles were changed twice a week with fresh drugs and C21 was changed daily. In order to determine the role of the angiotensin receptors in SN, the inventors generated hematopoietic chimeric animals through bone marrow (BM) transplantation. First, they transplanted BM from Berk-SS mice into WT [057BI/6 (CD45.2+) or congenic CD45.1+BI/6] mice; mice that developed >95% sickle chimerism were followed for 6-9 months. Berk-SS/WT chimeras also developed hyperangiotensinemia followed by SN. Like in native (untransplanted) sickle mice, losartan or captopril ameliorated glomerular disease, but worsened UCA of hematopoietic SCD chimeras.
# [1] = system: erythrocytes and platelets of SCD mice; assay: ROS analysis (CM-H2DCFDA flow cytometry) of blood cells of drug-treated SCD mice; assay type: in vivo, mouse
# Protocol: (§1) ROS was measured in WBC, RBC and platelets by mixing 0.5 μl of whole blood with 100 μl of FACS buffer (1×PBS, 0.5% bovine serum albumin), 0.1 μl of biotin anti-mouse Ter-119/erythroid Ly-76 antibody (BD Biosciences, San Jose, Calif., catalog#553672), 1 μl of Streptavidin APC-CyTM^7 (BD Biosciences, catalog#554063), 1 μl of PE anti-mouse CD45 antibody (BD Biosciences, cat#553081). […] All the tubes were incubated at room temperature for 20-30 minutes. The samples were washed with PBS at 200×g for 5 min and 100 μl of CM-H2DCFDA in 1:200 dilution was added to all sample tubes and the CM-H2DCFDA compensation tube while 100 μl of PBS was added to the rest of three compensation samples. The tubes were incubated for 30 minutes at 37° C. All the tubes were washed with 500 μl of PBS and centrifuged at 200×g for 5 min. After removing the supernatant the pellet was re-suspended in 200 μl of ice-cold PBS. Samples were stored on ice until analyzed on a BD FACSCantoTM II flow cytometer (BD Biosciences, San Jose, Calif.) by gating on the WBC, RBC and platelets. Mice were given the following drug treatments: a) Captopril (West-Ward Pharmaceutical, West Eatontown, N.J., NDC number #0143-1173-01) 0.15 mg/ml in drinking water. b) Losartan (Teva Pharmaceuticals USA Inc, North Wales, Pa., -NDC number#00937366-98) 0.3-0.6 mg/ml in drinking water. c) C21 (Vicore Pharma AB, […], Sweden; Batch/Lot number # A11202910) 10 mg/kg/day in drinking water. Losartan and captopril water bottles were changed twice a week with fresh drugs and C21 was changed daily.
# [2] = system: RBC and platelets of Berk-SS/WT hematopoietic chimeras; assay: ROS analysis (CM-H2DCFDA flow cytometry) of blood cells of drug-treated Berk-SS chimeras; assay type: in vivo, mouse
# Protocol: as §1
# Angiotensin-II = assay: Plasma and urine Angiotensin-II level (EIA) in drug-treated sickle mice; assay type: in vivo, mouse; settings: compared to untreated Berk-SS controls
# Protocol: Urine and plasma Angiotensin-II level was measured by using the Angiotensin II EIA kit (Cayman Chemical Company, Ann Arbor, Mich., catalog# A05880) following the manufacturer's instructions.
# Mice were given the following drug treatments: a) Captopril (West-Ward Pharmaceutical, West Eatontown, N.J., NDC number #0143-1173-01) 0.15 mg/ml in drinking water. b) Losartan (Teva Pharmaceuticals USA Inc, North Wales, Pa., -NDC number#00937366-98) 0.3-0.6 mg/ml in drinking water. c) C21 (Vicore Pharma AB, Haraldsgatan 5, S-413 14 Goteborg, Sweden; Batch/Lot number # A11202910) 10 mg/kg/day in drinking water. Losartan and captopril water bottles were changed twice a week with fresh drugs and C21 was changed daily.
Structure (SMILES),"urine concentrating ability (UCA) (Berk-SS mice; sickle (SCD) mice, drug in drinking water)",LV fibrosis (AT2 receptor),albuminuria (Berk-SS/WT chimeric mice),glomerular disease (Berk-SS/WT chimeric mice),UCA (urine osmolality) (Berk-SS/WT chimeric mice),erythrocyte ROS [1],platelet ROS [1],RBC (erythrocyte) ROS [2],platelet ROS [2],plasma AngII levels (Angiotensin-II),urine AngII levels (Angiotensin-II),"mortality (Berk-SS mice; Berk-SS mice on drug from 4 weeks of age, from severe hyposthenuria and dehydration)"
"CCCCOC(=O)NS(=O)(=O)c1sc(CC(C)C)cc1-c1ccc(Cn2ccnc2)cc1 [Compound C21, N-butyloxycarbonyl-3-(4-imidazol-1-ylmethylphenyl)-5-iso-butylthiophene-2-sulfonamide]",improve,ameliorates,–,–,–,–,–,–,–,–,–,–
CCCCc1nc(Cl)c(CO)n1Cc1ccc(-c2ccccc2-c2nn[nH]n2)cc1 [losartan],–,–,did not develop albuminuria,ameliorated,worsened,significantly lowered; also recorded: specifically lowered,unaffected,significantly lowered,not platelets; also recorded: unchanged,lower; also recorded: reduced,lower; also recorded: reduced,–
C[C@H](CS)C(=O)N1CCC[C@H]1C(=O)O [captopril],–,–,did not develop albuminuria,ameliorated,worsened,significantly lowered; also recorded: specifically lowered,unaffected,significantly lowered,not platelets; also recorded: unchanged,lower; also recorded: reduced,lower; also recorded: reduced,high mortality
